≈ marks a conversion by molar mass, not a printed value.

A short description of the data set: Solubility in water. Format: physicochemical. The note with it: hydrochloride.

Usually solubility stands for how much of the substance goes into solution per volume. A low value points to a poorly soluble substance. In the case of `CNC1C=CC2(CC1)c1ccccc1C=Cc1ccccc12` (stereo not shown) [Example 12], the solubility was approximately 10000 µg/mL (≈ 34.8 mM).

Source of the values: patent publication US4053632A, “Compounds of spiro-amine type and methods for their use” (priority 1971, dated 1977).
